Results reported in patent publication US7148194B2, “Method to increase fibronectin” (Kimberly-Clark Worldwide, Inc., priority 2002, dated 2006).

Legend:
neutrophils = assay: neutrophil migration assay, transwell plate; type: cell-based, human; conditions: for Percent Neutrophil Migration exp. 1: 0.4% HSA; for Percent Neutrophil Migration exp. 2: 0.04% HSA
Description: Peptides were synthesized and purified by the Microchemical Facility at Emory University or by SigmaGenesis. All peptides were analyzed by mass spectrometry after HPLC to assess purity. Approximately 0.5–2.0 milligrams of peptide were used to make fresh stock solutions (5 mg/mL in HBSS/HSA) for each migration assay. The peptide stock solutions were used to make more dilute solutions (1 mg/mL, 100 μg/mL, 10 μg/mL, 1 μg/mL, 100 ng/mL, and 10 ng/mL) in HBSS/HSA for the assays.
Neutrophils were isolated from human blood (collected in Vacutainer™ tubes containing EDTA) by layering the blood/EDTA mixture (about 20 mL) on top of two layers of Histopaque™ 1119 (bottom layer, 18 mL) and 1077 (top layer, 7 mL) in 50 mL Falcon tubes. The tubes were centrifuged at 1800 rpm for 30 minutes (no brake). Four layers appeared in the tubes after the spin (from top to bottom layers): plasma, 1077, 1119, and red blood cells. The buffy coat between the plasma and 1077 layers contained lymphocytes, monocytes, and some platelets. The plasma layer, the buffy coat, and most of the 1077 layer was removed and discarded. The 1119 layer that contained the neutrophils was removed and was placed into a clean 50 mL tube. Dulbecco's Phosphate Buffered Saline (DPBS) was added to bring the volume to 50 mL. The cells were centrifuged for 15 minutes at 2100 rpm. The cells were resuspended in 10 mL of DPBS, transferred to 15 mL tubes, and centrifuged again for 10 minutes at 2000 rpm. This process was repeated to wash the cells a second time. After the supernatant was removed, the red blood cells were lysed by adding 6 mL of cold sterile water to each 15 mL of supernatant. Cells were mixed in the water for only 30 seconds. Six mL of cold 2% sterile saline was then added. Cells were centrifuged again for 10 minutes at 2000 rpm. The red supernatant (containing hemoglobin from red blood cells) was removed. This process of red blood cell lysis was repeated two more times to remove all of the red blood cells. After most of the red blood cells were removed, neutrophils were resuspended in 10 mL of HBSS/HSA for counting with trypan blue.
A neutrophil migration assay was performed in duplicate using a 24-well transwell plate (3 μm pore size for membrane). Transwell membranes were pre-moistened with 20–40 μL of HBSS/HSA (0.04–0.4%). Chemotactic solutions (500 μL) were added to the bottom of each well. […] Transwells were then placed into the chemotactic solutions. The plate was placed into the incubator (37° C., 5% CO2) for one hour. Cells that migrated through the membrane were counted using trypan blue.
In the neutrophil migration experiments, neutrophils that were isolated were approximately 95% viable. […]

[1] = tested on: collagen production in human skin fibroblast cell line; assay: collagen production in human skin fibroblasts, EIA; type: cell-based; conditions: for Mean (collagen EIA, absorbance at 450 nm) / Median (collagen EIA, absorbance at 450 nm): 48 hours, n=2; for collagen production versus control: 10^−5 and 10^−6 M, P<0.001
Description: The stimulation response of the 19mer peptide on collagen production in the human skin fibroblast cell line (Clonetics, Walkersville, Md., normal human dermal fibroblasts, neonatal, catalog number CC-2509) was measured using Takara Biomedicals EIA assay kit (TAK MKO101) sold by Panvera (Madison, Wis.). The cells were first grown in a 96-well assay system using DMEM with 10% fetal bovine serum (FBS) both purchased from Sigma Chemical Co, St. Louis, Mo. Serum-free DMEM was used as a control. […] Plates were incubated for 24 hours at 37° C. in a humidified 5% CO2 atmosphere. After incubation, the medium was aspirated and the wells were rinsed twice with 100 μl of serum-free DMEM. […] In addition, 100 μl of vehicle (serum-free DMEM) was added to 4 wells as control. All wells were incubated for 48 hours at 37° C. in a humidified, 5% CO2 atmosphere.
The assay was performed using the recommended 20ul of the supernatant from each well of the 96-well plate. Standard buffer and stop solutions were freshly prepared before running the assay. 100ul of antibody-POD conjugate solution (supplied with the kit) was added into the wells using pre antibody coated 96 well plate (supplied with the kit). 20ul of standard and test solutions (from the other 96-well plate containing fibroblasts) were added to appropriate wells. Plate was mixed gently, sealed and incubated for three hrs. at 37° C.
After incubation each well was washed carefully four times with PBS buffer (400ul). All the wells were completely emptied at the end of washing from any liquid. 100ul of substrate solution (hydrogen peroxide and tetramethylbenzidine in a buffer solution, supplied with the kit) was added to each well and the plate was incubated for 15 minutes. At this point 100ul of stop solution (freshly prepared 1N H2SO4) was added to each well in the same order as substrate. The plate was gently mixed and absorbance was read at 450 nm. Results were analyzed statistically using one-way ANOVA.

MMP-2 = target: T1, MMP-2 (Homo sapiens, UniProt P08253); assay: isothermal titration calorimetry with MMP-2; type: binding; conditions: ITC, 10 mM NaCl at 25° C.
T1 sequence (P08253 110-660): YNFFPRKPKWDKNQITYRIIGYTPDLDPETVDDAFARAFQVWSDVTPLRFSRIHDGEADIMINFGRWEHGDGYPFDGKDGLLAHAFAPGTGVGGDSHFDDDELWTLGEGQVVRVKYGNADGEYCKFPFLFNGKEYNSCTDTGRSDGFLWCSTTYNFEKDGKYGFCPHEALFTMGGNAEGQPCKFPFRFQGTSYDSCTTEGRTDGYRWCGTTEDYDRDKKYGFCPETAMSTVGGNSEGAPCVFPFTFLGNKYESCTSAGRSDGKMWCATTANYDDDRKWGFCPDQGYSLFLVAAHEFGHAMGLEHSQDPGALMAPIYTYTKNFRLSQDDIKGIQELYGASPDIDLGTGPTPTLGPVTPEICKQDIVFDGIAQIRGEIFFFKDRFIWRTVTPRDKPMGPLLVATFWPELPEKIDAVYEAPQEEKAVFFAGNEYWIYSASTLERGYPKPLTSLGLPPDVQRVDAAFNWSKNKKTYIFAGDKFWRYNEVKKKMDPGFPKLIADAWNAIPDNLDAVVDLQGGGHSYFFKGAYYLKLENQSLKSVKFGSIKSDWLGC

[2] = MMP-2, 20 mM cacodylate (pH 6.8)

Structure (SMILES): CC(C)[C@H](NC(=O)[C@H](CC(=O)O)NC(=O)[C@@H]1CCCN1C(=O)[C@H](CC(N)=O)NC(=O)CNC(=O)[C@H](CS)NC(=O)[C@H](CCCNC(=N)N)NC(=O)[C@@H]1CCCN1)C(=O)N[C@@H](C)C(=O)N[C@@H](CC(N)=O)C(=O)N[C@@H](Cc1ccc(O)cc1)C(=O)N[C@@H](CC(N)=O)C(=O)N[C@@H](Cc1ccccc1)C(=O)N[C@@H](Cc1ccccc1)C(=O)N1CCC[C@H]1C(=O)N[C@@H](CCCNC(=N)N)C(=O)N[C@@H](CCCCN)C(=O)N1CCC[C@H]1C(=O)N[C@@H](CCCCN)C(=O)O [Peptide 19-mer]
- Percent Neutrophil Migration exp. 1 (neutrophils; 1 μg/mL): 32%
- Percent Neutrophil Migration exp. 1 (neutrophils; 10 μg/mL): 22%
- Percent Neutrophil Migration exp. 2 (neutrophils; 100 μg/mL): 0%
- Percent Neutrophil Migration exp. 1 (neutrophils; 100 μg/mL): 29%
- effect on neutrophil migration (neutrophils; 1 mg/mL to 1 μg/mL): did not have an effect on neutrophil migration
- Percent Neutrophil Migration exp. 2 (neutrophils; 1 mg/mL): 4%
- Percent Neutrophil Migration exp. 1 (neutrophils; 1 mg/mL): 23%
- Mean (collagen EIA, absorbance at 450 nm) ([1]; 1×10^−5 M): 0.8365
- Median (collagen EIA, absorbance at 450 nm) ([1]; 1×10^−5 M): 0.8365
- Mean (collagen EIA, absorbance at 450 nm) ([1]; 1×10^−6 M): 0.8315
- Median (collagen EIA, absorbance at 450 nm) ([1]; 1×10^−6 M): 0.8315
- collagen production versus control [1]: increased collagen production
- collagen production versus control ([1]; listed as 19mer peptide): statistically significant amounts
- Stoichiometry (MMP-2; MMP-2 20 μM, 19-mer 1 mM, 20 mM cacodylate (pH 6.8)): 0.99 ± 0.03
- ΔH (MMP-2; [2]): -15.4 ± 2.05 kcal/mol
- ΔS (MMP-2; [2]): −21.1 ± 1.8 cal mol^−1 K^−1
